Experimental data: patent US8906925B2, “Pyrido[4,3-B]indoles containing rigid moieties” (Medivation Technologies, Inc., priority 2008, dated 2014)
Values joined by “and” are separate entries in the source; they are usually repeats but may differ in a detail not shown here. Identical values can stand only once. Like-named read-outs stand apart in the source and are kept apart here.

Tests used:
[1] = target: human dopamine D2L receptor (Homo sapiens, UniProt P14416); assay: Dopamine D2L radioligand binding ([3H]Spiperone); conditions: compound at 1 μM; for Inhibition of ligand binding, Dopamine D2L: 1 µM
Source text: Non-specific binding was estimated in the presence of […] Haloperidol. Receptor proteins were filtered and washed, the filters were then counted to determine [^3H]Spiperone specifically bound. […] Biochemical assay results are presented as the percent inhibition of specific binding in Table 9.

[2] = target: T1, human recombinant adrenergic α1D receptor (Homo sapiens, UniProt P25100); assay: Adrenergic α1D radioligand binding ([3H]Prozosin); conditions: compound at 1 μM
T1 construct: expressed in transfected cells; host or cells: human embryonic kidney (HEK-293) cells
T1 sequence (P25100 1-572): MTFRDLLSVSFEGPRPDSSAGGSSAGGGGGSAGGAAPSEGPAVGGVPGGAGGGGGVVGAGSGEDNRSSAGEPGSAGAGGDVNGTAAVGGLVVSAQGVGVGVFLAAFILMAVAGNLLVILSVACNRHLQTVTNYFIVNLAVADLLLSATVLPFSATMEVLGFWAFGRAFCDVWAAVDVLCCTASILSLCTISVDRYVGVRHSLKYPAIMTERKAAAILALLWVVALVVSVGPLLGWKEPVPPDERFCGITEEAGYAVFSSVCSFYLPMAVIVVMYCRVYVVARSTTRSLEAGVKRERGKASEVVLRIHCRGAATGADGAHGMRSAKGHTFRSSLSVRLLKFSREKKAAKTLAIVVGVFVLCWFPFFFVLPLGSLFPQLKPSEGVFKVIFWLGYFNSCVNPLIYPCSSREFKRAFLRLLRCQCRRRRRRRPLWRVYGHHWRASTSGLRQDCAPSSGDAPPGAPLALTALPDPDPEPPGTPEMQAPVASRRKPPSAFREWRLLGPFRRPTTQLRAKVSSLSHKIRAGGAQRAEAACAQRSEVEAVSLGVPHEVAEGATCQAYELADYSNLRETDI
Protocol: Compounds of invention were incubated with 0.6 nM [^3H]Prozosin for 60 min. at 25° C. Non-specific binding was estimated in the presence of 10 μM phentolamine. Receptor proteins were filtered and washed, the filters were then counted to determine [^3H]Prozosin specifically bound. Compounds were screened at 1 μM or lower, using 1% DMSO as vehicle. Biochemical assay results are presented as the percent inhibition of specific binding in Table 9.

[3] = target: human recombinant serotonin (5-Hydroxytryptamine) 5-HT7 receptor (Homo sapiens, UniProt P34969); assay: Serotonin 5-HT7 radioligand binding ([3H]LSD); conditions: compound at 1 μM; for inhibition at 1 µM: read-out: Inhibition of ligand binding, Serotonin 5-HT7 (percent inhibition of specific binding)
Source text: Receptor proteins were filtered and washed, the filters were then counted to determine [^3H]LSD specifically bound.

[4] = target: T2, human recombinant serotonin (5-Hydroxytryptamine) 5-HT6 receptor (Homo sapiens, UniProt P50406); assay: Serotonin 5-HT6 radioligand binding ([3H]LSD); conditions: compound at 1 μM; for inhibition at 1 µM: read-out: Inhibition of ligand binding, Serotonin 5-HT6 (percent inhibition of specific binding); for Inhibition of ligand binding, Serotonin 5-HT6 (percent inhibition of specific binding): 1 µM
T2 construct: expressed in transfected cells; host or cells: human HeLa cells
Protocol: Compounds of the invention were incubated with 1.5 nM [3H]Lysergic acid diethylamide (LSD) for 120 min. at 37° C. […] Receptor proteins were filtered and washed, the filters were then counted to determine [3H]LSD specifically bound. Compounds were screened at 1 μM or lower, using 1% DMSO as vehicle. Biochemical assay results are presented as the percent inhibition of specific binding in Table 10.

[5] = target: T3, human recombinant serotonin (5-Hydroxytryptamine) 5-HT2C receptor (Homo sapiens, UniProt P28335); assay: Serotonin 5-HT2C radioligand binding ([3H]Mesulergine); conditions: compound at 1 μM; for inhibition at 1 µM: read-out: Inhibition of ligand binding, Serotonin 5-HT2C (percent inhibition of specific binding); for Inhibition of ligand binding, Serotonin 5-HT2C (percent inhibition of specific binding): 1 µM
T3 construct: expressed in transfected cells; host or cells: Chinese hamster ovary (CHO-K1) cells
T3 sequence (P28335 33-458): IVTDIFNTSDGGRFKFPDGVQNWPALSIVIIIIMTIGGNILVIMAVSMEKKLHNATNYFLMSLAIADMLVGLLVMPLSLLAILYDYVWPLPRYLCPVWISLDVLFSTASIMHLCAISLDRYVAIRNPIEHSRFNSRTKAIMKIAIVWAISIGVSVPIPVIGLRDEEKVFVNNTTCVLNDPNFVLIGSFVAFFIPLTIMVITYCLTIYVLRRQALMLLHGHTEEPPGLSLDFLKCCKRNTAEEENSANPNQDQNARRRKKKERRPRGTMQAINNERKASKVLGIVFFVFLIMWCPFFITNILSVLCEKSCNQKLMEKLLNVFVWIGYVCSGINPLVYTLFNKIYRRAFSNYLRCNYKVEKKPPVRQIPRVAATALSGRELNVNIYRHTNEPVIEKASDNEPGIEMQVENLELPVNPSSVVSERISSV
Procedure, shortened: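 Compounds tested at 1 μM or lower (1% DMSO vehicle) for displacement of 1 nM [3H]Mesulergine over 60 min at 25° C. Specific binding determined by filtration counting, with 1 μM Mianserin defining non-specific binding; values are percent inhibition.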

[6] = percent inhibition of specific binding, read-out: Inhibition of ligand binding, Dopamine D2L
[7] = percent inhibition of specific binding, read-out: Inhibition of ligand binding, Adrenergic α1D
[8] = percent inhibition of specific binding
[9] = […] [3H]Spiperone, read-out: Inhibition of ligand binding, Dopamine D2L (percent inhibition of specific binding)
[10] = read-out: Inhibition of ligand binding, Adrenergic α1D (percent inhibition of specific binding)

Chain of human recombinant serotonin (5-Hydroxytryptamine) 5-HT7 receptor (P34969 whole entry): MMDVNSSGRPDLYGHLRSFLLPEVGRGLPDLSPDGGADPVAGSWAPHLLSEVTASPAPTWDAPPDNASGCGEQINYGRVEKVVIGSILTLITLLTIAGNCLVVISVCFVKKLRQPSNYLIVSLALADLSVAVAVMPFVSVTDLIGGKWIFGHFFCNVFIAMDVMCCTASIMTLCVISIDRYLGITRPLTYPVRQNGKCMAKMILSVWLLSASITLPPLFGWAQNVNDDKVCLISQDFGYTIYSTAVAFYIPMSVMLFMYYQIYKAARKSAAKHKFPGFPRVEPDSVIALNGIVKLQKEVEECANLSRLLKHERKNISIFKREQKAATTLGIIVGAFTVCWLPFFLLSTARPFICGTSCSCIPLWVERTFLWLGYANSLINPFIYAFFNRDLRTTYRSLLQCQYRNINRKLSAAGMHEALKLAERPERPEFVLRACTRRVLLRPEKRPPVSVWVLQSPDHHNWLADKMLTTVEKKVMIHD
Chain of human dopamine D2L receptor (P14416 whole entry): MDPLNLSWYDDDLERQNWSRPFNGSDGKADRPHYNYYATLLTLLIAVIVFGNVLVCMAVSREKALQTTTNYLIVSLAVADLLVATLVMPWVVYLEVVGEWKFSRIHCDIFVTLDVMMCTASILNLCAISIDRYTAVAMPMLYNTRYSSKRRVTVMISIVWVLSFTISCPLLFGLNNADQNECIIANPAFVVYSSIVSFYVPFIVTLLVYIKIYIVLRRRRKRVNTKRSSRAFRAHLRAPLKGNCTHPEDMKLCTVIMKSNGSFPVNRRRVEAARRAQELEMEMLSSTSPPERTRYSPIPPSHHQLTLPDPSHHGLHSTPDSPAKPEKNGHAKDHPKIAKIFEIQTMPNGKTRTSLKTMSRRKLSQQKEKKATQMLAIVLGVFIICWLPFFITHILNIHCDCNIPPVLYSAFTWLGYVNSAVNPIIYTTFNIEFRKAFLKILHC
T2 sequence (P50406 whole entry): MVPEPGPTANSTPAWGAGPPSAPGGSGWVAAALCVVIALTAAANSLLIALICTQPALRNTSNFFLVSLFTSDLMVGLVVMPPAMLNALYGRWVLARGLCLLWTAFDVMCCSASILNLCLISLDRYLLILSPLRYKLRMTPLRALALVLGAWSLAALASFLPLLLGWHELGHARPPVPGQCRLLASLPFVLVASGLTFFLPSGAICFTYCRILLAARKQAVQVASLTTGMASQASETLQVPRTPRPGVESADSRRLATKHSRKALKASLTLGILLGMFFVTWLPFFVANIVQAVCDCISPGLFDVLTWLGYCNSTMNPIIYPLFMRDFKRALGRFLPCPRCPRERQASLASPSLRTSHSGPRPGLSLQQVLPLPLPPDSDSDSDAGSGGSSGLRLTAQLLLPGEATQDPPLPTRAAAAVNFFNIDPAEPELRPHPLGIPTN

Compound | inhibition at 1 µM [1, 6] | inhibition at 1 µM [2, 7] | inhibition at 1 µM [3] | inhibition at 1 µM [4] | inhibition at 1 µM [5] | Inhibition of ligand binding, Dopamine D2L [1, 8] | Inhibition of ligand binding, Serotonin 5-HT7 (percent inhibition of specific binding) [3] | Inhibition of ligand binding, Serotonin 5-HT6 (percent inhibition of specific binding) [4] | Inhibition of ligand binding, Serotonin 5-HT2C (percent inhibition of specific binding) [5] | Inhibition of ligand binding, Serotonin 5-HT7 (percent inhibition of specific binding) ([3]; 1 µM) | Inhibition of ligand binding, Dopamine D2L (percent inhibition of specific binding) ([1]; […] [3H]Spiperone) | inhibition at 1 µM [1, 9] | inhibition at 1 µM [2, 10]
Cc1ccc2c(c1)c1c(n2CC(O)(c2ccccc2)c2ccc(F)cc2)CCN(C)C1 (stereo not drawn) [Compound No. 176, 2-(2,8-dimethyl-3,4-dihydro-1H-pyrido[4,3-b]indol-5(2H)-yl)-1-(4-fluorophenyl)-1-phenylethanol] | 6% | 42% | 65% | 82% | 99% | – | – | – | – | – | – | – | –
CCOC(=O)/C=C(/Cn1c2c(c3cc(C)ccc31)CN(C)CC2)c1ccccc1 [Compound No. 347, (E)-ethyl 4-(2,8-dimethyl-3,4-dihydro-1H-pyrido[4,3-b]indol-5(2H)-yl)-3-phenylbut-2-enoate] | 27% | 90% | 101% | 101% | 104% | 30% | – | – | – | – | – | – | –
CN1CCc2c(c3cc(Cl)ccc3n2C/C(=C\CCO)c2ccc(F)cc2)C1 [Compound No. 348, (Z)-5-(8-chloro-2-methyl-3,4-dihydro-1H-pyrido[4,3-b]indol-5(2H)-yl)-4-(4-fluorophenyl)pent-3-en-1-ol] | 18% | 35% | 93% | 94% | 91% | 29% | 93/93% | 98% | 95% | – | – | – | –
CN1CCc2c(c3cc(Cl)ccc3n2C/C(=C/CCO)c2ccc(F)cc2)C1 [Compound No. 349, (E)-5-(8-chloro-2-methyl-3,4-dihydro-1H-pyrido[4,3-b]indol-5(2H)-yl)-4-(4-fluorophenyl)pent-3-en-1-ol] | 34% | 60% | 93% | 102% | 96% | 46% | – | 103% | 98% | 100% | – | – | –
CCOC(=O)/C=C(/Cn1c2c(c3cc(C)ccc31)CN(C)CC2)c1ccc(F)cc1 [Compound No. 350, (E)-ethyl 4-(2,8-dimethyl-3,4-dihydro-1H-pyrido[4,3-b]indol-5(2H)-yl)-3-(4-fluorophenyl)but-2-enoate] | – | – | 71% | 103% | 87% | – | – | – | – | – | 21% | 12% | 85%
CCC/C=C(/Cn1c2c(c3cc(Cl)ccc31)CN(C)CC2)c1ccc(F)cc1 [Compound No. 351, (E)-8-chloro-5-(2-(4-fluorophenyl)hex-2-enyl)-2-methyl-2,3,4,5-tetrahydro-1H-pyrido[4,3-b]indole] | – | – | 90% | 103% | 101% | – | – | – | – | – | 80% | 70% | 45%
Cc1ccc2c(c1)c1c(n2C/C(=C/C(=O)O)c2ccc(F)cc2)CCN(C)C1 [Compound No. 352, (E)-4-(2,8-dimethyl-3,4-dihydro-1H-pyrido[4,3-b]indol-5(2H)-yl)-3-(4-fluorophenyl)but-2-enoic acid] | – | – | 52% | 32% | 93% | – | – | – | – | – | – | 0% | 11%
Cc1ccc2c(c1)c1c(n2C#Cc2ccc(C)nc2)CCN(C)C1 [Compound No. 476, 2,8-dimethyl-5-((6-methylpyridin-3-yl)ethynyl)-2,3,4,5-tetrahydro-1H-pyrido[4,3-b]indole] | – | – | 90% | – | 95% | – | – | 64% and 86% | – | 92% | – | 19% | 95%
COc1ccc(C#Cn2c3c(c4cc(Cl)ccc42)CN(C)CC3)cc1F [Compound No. 477, 8-chloro-5-((3-fluoro-4-methoxyphenyl)ethynyl)-2-methyl-2,3,4,5-tetrahydro-1H-pyrido[4,3-b]indole] | – | – | 65% | 89% | 99% | – | – | – | – | – | – | 25% | 79%
Cc1ccc2c(c1)c1c(n2C#Cc2ccc(F)cc2)CCN(C)C1 [Compound No. 478, 5-((4-fluorophenyl)ethynyl)-2,8-dimethyl-2,3,4,5-tetrahydro-1H-pyrido[4,3-b]indole] | – | – | 96% | 97% | 110% | – | – | – | – | – | – | 89% | 92%
COC(=O)c1ccc2c(c1)c1c(n2C#Cc2ccc(F)cc2)CCN(C)C1 [Compound No. 479, methyl 5-((4-fluorophenyl)ethynyl)-2-methyl-2,3,4,5-tetrahydro-1H-pyrido[4,3-b]indole-8-carboxylate] | – | – | 17% | 91% | 69% | – | – | – | – | – | – | 72% | 55%
CN1CCc2c(c3cc(Cl)ccc3n2C#Cc2ccc(Cl)cc2)C1 [Compound No. 480, 8-chloro-5-((4-chlorophenyl)ethynyl)-2-methyl-2,3,4,5-tetrahydro-1H-pyrido[4,3-b]indole] | – | – | 84% | 67% | 102% | – | – | – | – | – | – | 18% | 68%
Cc1ccc2c(c1)c1c(n2C#Cc2ccc(Cl)cc2)CCN(C)C1 [Compound No. 481, 5-((4-chlorophenyl)ethynyl)-2,8-dimethyl-2,3,4,5-tetrahydro-1H-pyrido[4,3-b]indole] | – | – | 84% | 87% | 104% | – | – | – | – | – | – | 24% | 77%
CN1CCc2c(c3cc(C(=O)O)ccc3n2C#Cc2ccc(F)cc2)C1 [Compound No. 482, 5-((4-fluorophenyl)ethynyl)-2-methyl-2,3,4,5-tetrahydro-1H-pyrido[4,3-b]indole-8-carboxylic acid] | – | – | 22% | 4% | -12% | – | – | – | – | – | – | -2% | 21%
CNC(=O)c1ccc2c(c1)c1c(n2C#Cc2ccc(F)cc2)CCN(C)C1 [Compound No. 483, 5-((4-fluorophenyl)ethynyl)-N,2-dimethyl-2,3,4,5-tetrahydro-1H-pyrido[4,3-b]indole-8-carboxamide] | – | – | 16% | 53% | 35% | – | – | – | – | – | – | 37% | 59%
